According to paper PMC4335020, “Single Oral Dose Pharmacokinetics of Decursin and Decursinol Angelate in Healthy Adult Men and Women” (PLoS ONE, 2015):
Read-outs that look alike come from different tables or passages of the source.

Test: Single oral dose human plasma pharmacokinetics of D, DA and DOH after Cogni.Q
Type: in vivo
Settings: for Tmax / AUC(0-t) / Cmax / half-life: human, plasma
Source text: Ten healthy male and 10 female subjects were recruited by public announcement in Amarillo, TX, from January 2013 to April 2013 (see Fig. 1 CONSORT diagram). The sample size for each gender was chosen without power calculation due to the lack of prior knowledge of PK parameter variance in humans. After receiving informed consent verbally and in writing, the health status of each candidate was confirmed by health questionnaire, plasma biochemistry (hepatic and renal functions), complete blood cell count (CBC), and a physical examination by a participating academic physician. Subjects with diabetes, or pregnant, perinatal and breastfeeding women were excluded. For the 48 hours preceding study visit until the final blood draw, all subjects were instructed to avoid taking any prescription or nonprescription drugs, vitamins, and herbal/dietary supplements. Each subject was compensated for participating in the study per TTUHSC IRB approved rate.
Eligible subjects arrived at our clinical facility at 0700 (7:00 am) on the test day after a fast beginning at 2200 (10:00 pm) the previous night. After a brief review of vital signs, the nurse placed an intravenous (IV) line with saline drip in one arm of each subject. A baseline pre-dose (hour 0) blood sample was drawn through the IV line; after that subjects swallowed four Cogni.Q vegicaps with 240 mL of water at hour 0 under direct supervision. Subjects stayed at the clinical facility in their room for the next 12 hours, returning at 24 and 48 hours. Blood was drawn at baseline (hour 0) and at 0.5, 1, 2, 3, 4, 6, 8, 12, 24 and 48 hours after dosing into Vacutainer Blood Collection Tube (Becton-Dickinson, Franklin Lakes, NJ. Product Number: 367874, Sodium heparin was used as anti-coagulant). Water was allowed as desired except for within the first hour after Cogni.Q consumption. All subjects received standardized meals at post-dose hours 4.5 and 9.5 but no food was allowed for at least the first 4 hours post-dose.
Plasma was prepared by centrifuging the heparinized blood at 1000 g for 15 minutes at room temperature. Urine samples (40mL) were collected within time spans of 0–4, 4–8, 8–12 and 12–24 hours (total volume of urine was recorded). All plasma and urine samples were put on dry ice immediately and then stored at -80°C freezer until analysis.
Plasma samples were extracted with a validated solid supported liquid extraction (SLE) method facilitated with a positive pressure manifold (Biotage, Charlotte, NC). Briefly, 100 μL of plasma sample was spiked with 5 μL of 10 ng/μL prednisolone (IS), diluted with 200 μL of LC-MS grade water, mixed and loaded onto ISOLUTE SLE+ 400 μL Array Well cartridges (Biotage, Charlotte, NC). A pulse of minimum positive pressure was applied to facilitate the samples absorption into the cartridges. After the samples were allowed to absorb for 5 min, the compounds were eluted with 2×500 μL tert-butyl methyl ether. The eluent was dried in a Speedvac and the resulting residue was reconstituted in 50 μL of methanol for UHPLC-MS/MS analysis.
Eight-point calibration curves were constructed for D, DA and DOH, at concentrations of 0.1, 0.5, 1, 5, 10, 20, 50 and 100 μg/L for D and DA, and at concentrations of 1, 5, 10, 50, 100, 200, 500 and 1000 μg/L for DOH, respectively. The linear range was 0.1–100 μg/L (0.3–300 nmol/L), 0.1–100 μg/L (0.3–300 nmol/L) and 1–1000 μg/L (4–4000 nmol/L) for D, DA and DOH, respectively. The inter- and intra-assay CV were lower than 6.5% and the accuracy was between 90–105%. Calibration curve was run for each batch of samples analyzed. The mean calibration curve correlation coefficient (r) for D, DA and DOH was 0.999, 0.999 and 0.998, respectively (data from 7–10 calibration curves). In addition, 70% of the plasma samples were extracted and analyzed twice, the data from two replicate analyses were nearly identical and combined for final data analyses and presentation. […]

C/C=C(/C)C(=O)O[C@H]1Cc2cc3ccc(=O)oc3cc2OC1(C)C [DA, decursinol angelate]
Tmax (oral, 4 Cogni.Q vegicaps, subject S9 (158 lb), read-out: Tmax): 1 h
AUC(0-t) (oral, 4 Cogni.Q vegicaps, subject S10 (185 lb), read-out: AUC0-48h): 115 nmol·h/L
Cmax (oral, 4 Cogni.Q vegicaps, subject S10 (185 lb), read-out: Cmax): 7 nM
half-life (oral, 4 Cogni.Q vegicaps, subject S10 (185 lb), read-out: Terminal t1/2, h (converted)): 13.3 h
Tmax (oral, 4 Cogni.Q vegicaps, subject S10 (185 lb), read-out: Tmax): 2 h
AUC(0-t) (oral, 4 Cogni.Q vegicaps, subject S11 (178 lb), read-out: AUC0-48h): 168 nmol·h/L
Cmax (oral, 4 Cogni.Q vegicaps, subject S11 (178 lb), read-out: Cmax): 29.7 nM
half-life (oral, 4 Cogni.Q vegicaps, subject S11 (178 lb), read-out: Terminal t1/2, h (converted)): 14.2 h
Tmax (oral, 4 Cogni.Q vegicaps, subject S11 (178 lb), read-out: Tmax): 1 h
AUC(0-t) (oral, 4 Cogni.Q vegicaps, subject S12 (169 lb), read-out: AUC0-48h): 150 nmol·h/L
Cmax (oral, 4 Cogni.Q vegicaps, subject S12 (169 lb), read-out: Cmax): 16.8 nM
half-life (oral, 4 Cogni.Q vegicaps, subject S12 (169 lb), read-out: Terminal t1/2, h (converted)): 40.2 h
Tmax (oral, 4 Cogni.Q vegicaps, subject S12 (169 lb), read-out: Tmax): 2 h
AUC(0-t) (oral, 4 Cogni.Q vegicaps, subject S13 (192 lb), read-out: AUC0-48h): 106 nmol·h/L
Cmax (oral, 4 Cogni.Q vegicaps, subject S13 (192 lb), read-out: Cmax): 11.2 nM
half-life (oral, 4 Cogni.Q vegicaps, subject S13 (192 lb), read-out: Terminal t1/2, h (converted)): 12.7 h
Tmax (oral, 4 Cogni.Q vegicaps, subject S13 (192 lb), read-out: Tmax): 1 h
AUC(0-t) (oral, 4 Cogni.Q vegicaps, subject S14 (200 lb), read-out: AUC0-48h): 96.4 nmol·h/L
Cmax (oral, 4 Cogni.Q vegicaps, subject S14 (200 lb), read-out: Cmax): 24.4 nM
half-life (oral, 4 Cogni.Q vegicaps, subject S14 (200 lb), read-out: Terminal t1/2, h (converted)): 12.6 h
Tmax (oral, 4 Cogni.Q vegicaps, subject S14 (200 lb), read-out: Tmax): 1 h
AUC(0-t) (oral, 4 Cogni.Q vegicaps, subject S15 (177 lb), read-out: AUC0-48h): 512 nmol·h/L
Cmax (oral, 4 Cogni.Q vegicaps, subject S15 (177 lb), read-out: Cmax): 196 nM
half-life (oral, 4 Cogni.Q vegicaps, subject S15 (177 lb), read-out: Terminal t1/2, h (converted)): 18.7 h
Tmax (oral, 4 Cogni.Q vegicaps, subject S15 (177 lb), read-out: Tmax): 1 h
Tmax (oral, 4 Cogni.Q vegicaps, subject S16 (175 lb), read-out: Tmax): 3 h
AUC(0-t) (oral, 4 Cogni.Q vegicaps, subject S17 (147 lb), read-out: AUC0-48h): 593 nmol·h/L
Cmax (oral, 4 Cogni.Q vegicaps, subject S17 (147 lb), read-out: Cmax): 104 nM
half-life (oral, 4 Cogni.Q vegicaps, subject S17 (147 lb), read-out: Terminal t1/2, h (converted)): 24.2 h
Tmax (oral, 4 Cogni.Q vegicaps, subject S17 (147 lb), read-out: Tmax): 2 h
half-life (oral, 4 Cogni.Q vegicaps, subject S18 (180 lb), outlier, excluded from means, read-out: Terminal t1/2, h (converted)): 55.7 h
AUC(0-t) (oral, 4 Cogni.Q vegicaps, subject S18 (180 lb), read-out: AUC0-48h): 48.1 nmol·h/L
Cmax (oral, 4 Cogni.Q vegicaps, subject S18 (180 lb), read-out: Cmax): 3 nM
Tmax (oral, 4 Cogni.Q vegicaps, subject S18 (180 lb), read-out: Tmax): 4 h
AUC(0-t) (oral, 4 Cogni.Q vegicaps, subject S19 (130 lb), read-out: AUC0-48h): 87.7 nmol·h/L
Cmax (oral, 4 Cogni.Q vegicaps, subject S19 (130 lb), read-out: Cmax): 6.9 nM
half-life (oral, 4 Cogni.Q vegicaps, subject S19 (130 lb), read-out: Terminal t1/2, h (converted)): 16 h
Tmax (oral, 4 Cogni.Q vegicaps, subject S19 (130 lb), read-out: Tmax): 4 h
half-life (oral, subject S16 (175 lb), outlier, excluded from means, read-out: Terminal t1/2, h (converted)): 190 h
AUC(0-t) (oral, subject S16 (175 lb), read-out: AUC0-48h): 68.4 nmol·h/L
Cmax (oral, subject S16 (175 lb), read-out: Cmax): 4.3 nM
AUC(0-t) (oral, subject S20 (200 lb), read-out: AUC0-48h): 170 nmol·h/L
Cmax (oral, subject S20 (200 lb), read-out: Cmax): 17.2 nM
half-life (oral, subject S20 (200 lb), read-out: Terminal t1/2, h (converted)): 18.8 h
Tmax (oral, subject S20 (200 lb), read-out: Tmax): 2 h
conversion of D/DA to DOH (humans, from plasma AUC0–48h values): > 98%
AUC(0-t) (male, oral, 4 Cogni.Q vegicaps, Men n=10 (S1 Table), read-out: AUC0-48h, Mean): 327 nmol·h/L
Cmax (male, oral, 4 Cogni.Q vegicaps, Men n=10 (S1 Table), read-out: Cmax, nM, Mean): 52.2 nM
Tmax (male, oral, 4 Cogni.Q vegicaps, Men n=10 (S1 Table), read-out: Tmax, h, Mean): 2.1 h
half-life (male, oral, Men, outliers excluded (S1 Table), read-out: Terminal t1/2, h, Mean (converted)): 14.9 h
AUC(0-t) (male, po, Men N = 10, single oral dose Cogni.Q, read-out: AUC0–48h, h.nmol/L Mean (SD)): 327 nmol·h/L
Cmax (male, po, Men N = 10, single oral dose Cogni.Q, read-out: Cmax, nmol/L, Mean (SD)): 52.2 nM
Tmax (male, po, Men N = 10, single oral dose Cogni.Q, read-out: Tmax, h, Mean (SD)): 2.1 h
half-life (male, po, Men, outlier subjects excluded, single oral dose Cogni.Q, read-out: T1/2, h, terminal Mean (SD) (converted)): 14.9 h
difference in C max among subjects in the same gender (same gender): more than 20 fold
